Measurements taken from PMC5947712, “High‐Throughput Kinetic Analysis for Target‐Directed Covalent Ligand Discovery” (Angewandte Chemie (International Ed. in English), 2018).

Legend:
Cdk1‐cyclin A2 = Cdk1‐cyclin A2 (Homo sapiens, UniProt P06493); experiment: In vitro kinase activity after 24 h incubation of active Cdk1:cyclin A2 with acrylamides; format: biochemical; conditions: for inhibition at 500 µM: 0.5 mM, 24 hours incubation, n=3, read-out: % inhibition ± SEM Cdk1
Protocol: Figure 6 a) Sequence alignment of Cdk family. Cys177 is highlighted in yellow. b) Published selectivity profiles of selected Cdk2 inhibitors.29 c) Active Cdk1/Cdk2:cyclin A2 was incubated with acrylamides 1 and 2 (0.5 mM) for 24 hours and then their in vitro kinase activity was measured (n=3). […]
Tables! 2R6.! Molecular! replacement! was! conducted! on! all! data! sets! using!Phaser[14]/MOLREP[15]!against! apoRCdk2! (PDB:!
4EK3)!and!the! model! was! iteratively! refined! using! Phenix.Refine[16]!with! manual! modelling! and! adjustments! carried! out! in!
COOT[17].! Descriptions! of! the! ligands! and! links! were! generated! with! JLigand[18]!and! refined! with! Refmac[19].! Electron! density! […]
Cdk2! (1! mg)! was! sequentially! incubated! with! aliquots! of! CAK1! (3!×!0.05! mg)! at! r.t.! for! 4! hours! at! a! time! in! 1.5! mL! of! a! 30! mM!
Tris/HCl! buffer! (pH! 7.5)! containing! 10! mM! MgCl2,! 10! mM! ATP! and! 3! mM! DTT.! As! CAK1! appeared! to! become! rapidly! inactiR
vated! in! the! presence! of! pCdk2,! three! repetitions! were! required! to! drive! the! reaction! to! completion.! The! resulting! solution! was!
incubated!with!50!µL!of!glutathioneRSepharose!beads!and!filtered!to!remove!remaining!CAK1.!
Phosphorylation! of! T160! results! in! increased! mobility! of! Cdk2! during! gel! electrophoresis! and! the! reaction! was! monitored! by!
SDSRpage.! The! site! of! modification! was! subsequently! verified! by! western! blot! using! an! antiRT160! antibody! (Cell! Signalling!
2561)!and!complete!monoRmodification!was!confirmed!by!intact!protein!mass!spectrometry.! […]
initiated!by!addition!of!0.5!mM!ATP!and!0.24!mM!substrate!peptide!([…])!and!the!absorbance!at!340!nm!was!moniR […]
plate! reader! […]
was!measured!from!the!gradient!during!the!linear!phase!of!product!accumulation.!! […]
ments,! the! wavelength! was! adjusted! to! 230! nm! and! elipticity! was! measured! at! […]
repeats!of!10!s!integrations!per!temperature.!The!meltRtemperature!(Tm)!was!determined!using!Prism!6.0!by!fitting!a!sigmoidal! […]
The! cell! lysates! were!diluted! to! […] RIPA! lysis! buffer,! as! quantified! by! the! […]

[1] = qIT (quantitative irreversible tethering) thiol consumption assay with glutathione; conditions: compound 0.5 mM, glutathione 5 μM, TCEP-agarose 2 % w/v
Protocol: To measure the kinetics of electrophile‐thiol conjugation we developed quantitative irreversible tethering (qIT), a technique which employs fluorogenic thiol quantification (FTQ) in a high‐throughput thiol consumption assay (Figure 1 a). […] We solved this problem using an immobilized reducing agent (TCEP‐agarose, 2 % w/v), allowing facile separation by centrifugation before conducting the FTQ step (Figure 1 b).
The target thiol (5 μM) is reacted with electrophilic fragments (0.5 mM) under pseudo‐first‐order conditions in the presence of TCEP‐agarose (2 % w/v). Reaction progress is followed by discrete measurements of residual target thiol concentration using the fluorogenic probe CPM and rate constants are derived from exponential regression analysis. b) TCEP‐agarose prevents aerobic thiol oxidation. Glutathione solutions were stored ±TCEP‐agarose (2 % w/v).
Electrophiles were individually reacted with glutathione under pseudo‐first‐order conditions in the presence of TCEP‐agarose. […] Fluorescence measurements were normalized against a DMSO control and exponential regressions used to determine rate constants.
ReactionBplate" setup:!Each! well! of! a! 96Rwell! PCR! plate! was! charged! with! 60–100! µL! of! target! thiol! (GSH! or! protein,! 10! µM)!
and! 4%! w/v! TCEPRagarose! beads! in! 100! mM! phosphate! buffer! (pH! 7.5! or! 8)! and! cooled! to! 4! ˚C.! Reactions! were! started! by!
addition! of! an! equal! volume! of! preRcooled! electrophile! solution! (1! mM,! 2%! DMSO)! in! 0.1! M! phosphate! buffer! (final! concentraR
tion:! thiol! =! 5! µM,! electrophile! =! 0.5! mM,! 2%! w/v! TCEPRagarose! beads),! with! a! minimum! of! 4! wells! per! plate! used! as!
DMSO/thiol! only! controls.! After! mixing,! TCEPRagarose! was! pelleted! by! centrifugation! (1,300! rpm,! 1! min)! and! the! plate! incuR
bated!at!4!˚C.,CPM"Quench:! At! a! series! of! time! points!

Cdk1‐cyclin A2, sequence (P06493 whole entry): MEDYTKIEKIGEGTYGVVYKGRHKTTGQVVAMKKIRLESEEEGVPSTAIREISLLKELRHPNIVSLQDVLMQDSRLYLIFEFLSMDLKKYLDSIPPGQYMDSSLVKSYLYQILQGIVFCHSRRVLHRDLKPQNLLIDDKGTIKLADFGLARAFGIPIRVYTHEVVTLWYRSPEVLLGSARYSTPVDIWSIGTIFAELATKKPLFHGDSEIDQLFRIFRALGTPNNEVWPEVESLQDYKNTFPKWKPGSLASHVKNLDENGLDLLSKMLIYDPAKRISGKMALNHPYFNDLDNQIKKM
Cdk1‐cyclin A2, sequence (P20248 whole entry partner): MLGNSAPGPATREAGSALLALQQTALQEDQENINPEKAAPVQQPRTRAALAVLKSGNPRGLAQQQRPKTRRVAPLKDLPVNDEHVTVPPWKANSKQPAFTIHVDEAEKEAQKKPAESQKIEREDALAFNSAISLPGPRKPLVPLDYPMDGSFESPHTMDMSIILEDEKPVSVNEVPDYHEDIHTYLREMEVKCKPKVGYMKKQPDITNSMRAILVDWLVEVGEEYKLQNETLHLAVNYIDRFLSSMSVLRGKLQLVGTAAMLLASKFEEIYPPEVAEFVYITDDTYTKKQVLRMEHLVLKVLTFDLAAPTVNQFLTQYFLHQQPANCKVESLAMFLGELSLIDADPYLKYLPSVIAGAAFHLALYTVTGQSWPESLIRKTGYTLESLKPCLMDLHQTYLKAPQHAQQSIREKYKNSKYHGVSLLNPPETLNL

inhibition at 500 µM (Cdk1‐cyclin A2) [%] | inhibition of Cdk1‐cyclin A2 in vitro (in words) (Cdk1‐cyclin A2; prolonged exposure (24 hours)) | SMILES | k GSH (pseudo-first-order rate constant) [1] [h⁻¹]
2 ± 10 | failed to inhibit | C=CC(=O)N1CCN(C(=O)OC(C)(C)C)c2ccccc21 [Acrylamide 1] | 0.041
-2 ± 8 | – | C=CC(=O)N1CCN(C(=O)OC)c2ccccc21 [Acrylamide 2] | 0.089
